Experimental data published in patent US20240218022A1, “ANTI-VISTA MACROCYCLIC PEPTIDES AND COMPOSITIONS” (BRISTOL-MYERS SQUIBB COMPANY, priority 2022, published 2024).
Positions of bridges follow the written chain, without caps; N, C: chain ends. Non-standard residues stand in square brackets, D forms with d. Residues, ends and D or L forms follow the SMILES beside them. 2Nal = N[C@@H](Cc1ccc2ccccc2c1)C(=O)O; Ahp(2) = CCCCC[C@H](N)C(=O)O; NMeNle = CCCC[C@H](NC)C(=O)O; NHexGly = CCCCCCNCC(=O)O; Nle = CCCC[C@H](N)C(=O)O; Orn = NCCC[C@H](N)C(=O)O; Dab = NCC[C@H](N)C(=O)O; Dap = NC[C@H](N)C(=O)O

Target: T1, mouse VISTA (mVISTA) (Mus musculus, UniProt Q9D659)
T1 construct: expressed in transfected cells; host or cells: Human embryonic kidney 293T cells
T1 sequence (Q9D659 33-308): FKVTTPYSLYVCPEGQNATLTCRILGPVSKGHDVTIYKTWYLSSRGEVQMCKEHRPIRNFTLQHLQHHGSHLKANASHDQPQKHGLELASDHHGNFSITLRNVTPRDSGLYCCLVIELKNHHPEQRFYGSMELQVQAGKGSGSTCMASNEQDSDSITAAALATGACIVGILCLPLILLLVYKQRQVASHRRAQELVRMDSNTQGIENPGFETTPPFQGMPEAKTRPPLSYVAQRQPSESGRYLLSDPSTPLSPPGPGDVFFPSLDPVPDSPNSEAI
Assay: Cell-Based Binding High-Content Assay For mVISTA (HC CBA mVISTA)
Conditions: read-out: HC CBA mVISTA IC50
In short: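 Read-out: Alexa 647–streptavidin signal imaged on fixed, Hoechst-stained mVISTA-293T cells, with IC50 taken from a four-parameter logistic curve. Compounds competed with 2 nM biotinylated peptide for 30 min at room temperature, tested under both no-wash and wash (1 h compound, media exchange, 1 h) formats.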

| SMILES | IC50 |
| --- | --- |
| CCCCCCN1CC(=O)N[C@@H](Cc2ccc(O)cc2)C(=O)N[C@@H](CC(C)C)C(=O)NCC(=O)N[C@@H](CCCNC(=N)N)C(=O)N[C@@H](CC(C)C)C(=O)N[C@@H](CCCCC)C(=O)N2CCC[C@H]2C(=O)N[C@@H](C(C)C)C(=O)N2CCC[C@H]2C(=O)N[C@H](C(=O)NCC(=O)O)CSCC(=O)N[C@@H](Cc2ccccc2)C(=O)N[C@@H](Cc2ccc(O)cc2)C(=O)N[C@@H](CC(=O)O)C1=O [compound 1124] ({CH2CO}-FYD[NHexGly]YLGRL[Ahp(2)]PVPCG-OH; thioether N-14) | 32.3 nM |
| CCCCCCN1CC(=O)N[C@@H](Cc2ccc(O)cc2)C(=O)N[C@@H](CC(C)C)C(=O)NCC(=O)N[C@@H](CCCNC(=N)N)C(=O)N[C@@H](CC(C)C)C(=O)N[C@@H](CCCCC)C(=O)N2CCC[C@H]2C(=O)N[C@@H](C(C)C)C(=O)N2CCC[C@H]2C(=O)N[C@H](C(=O)NCC(N)=O)CSCC(=O)N[C@@H](Cc2ccccc2)C(=O)N[C@@H](Cc2ccc(O)cc2)C(=O)N[C@@H](CC(=O)O)C1=O [compound 1125] ({CH2CO}-FYD[NHexGly]YLGRL[Ahp(2)]PVPCG-NH2; thioether N-14) | 33.5 nM |
| CCCCCCN1CC(=O)N[C@@H](Cc2ccc(O)cc2)C(=O)N[C@@H](CCCC)C(=O)N[C@@H](CC(N)=O)C(=O)N[C@@H](CCCNC(=N)N)C(=O)N(C)[C@@H](CCCC)C(=O)N[C@@H](CCCCC)C(=O)N2CCC[C@H]2C(=O)N[C@@H](C(C)C)C(=O)N[C@@H](CC(=O)O)C(=O)N[C@H](C(=O)N[C@@H](CCCCN)C(=O)N[C@@H](CC(N)=O)C(=O)O)CSCC(=O)N[C@@H](Cc2ccccc2)C(=O)N[C@@H](Cc2c[nH]c3ccccc23)C(=O)N[C@@H](CC(=O)O)C1=O [compound 1128] ({CH2CO}-FWD[NHexGly]Y[Nle]NR[NMeNle][Ahp(2)]PVDCKN-OH; thioether N-14) | 15.7 nM |
| CCCCCCN1CC(=O)N[C@@H](Cc2ccc(O)cc2)C(=O)N[C@@H](CCCC)C(=O)N[C@@H](CC(N)=O)C(=O)N[C@@H](CCCNC(=N)N)C(=O)N(C)[C@@H](CCCC)C(=O)N[C@@H](CCCCC)C(=O)N2CCC[C@H]2C(=O)N[C@@H](C(C)C)C(=O)N[C@@H](CC(=O)O)C(=O)N[C@H](C(=O)N[C@@H](CCCN)C(=O)N[C@@H](CC(N)=O)C(=O)O)CSCC(=O)N[C@@H](Cc2ccccc2)C(=O)N[C@@H](Cc2c[nH]c3ccccc23)C(=O)N[C@@H](CC(=O)O)C1=O [compound 1129] ({CH2CO}-FWD[NHexGly]Y[Nle]NR[NMeNle][Ahp(2)]PVDC[Orn]N-OH; thioether N-14) | 13.4 nM |
| CCCCCCN1CC(=O)N[C@@H](Cc2ccc(O)cc2)C(=O)N[C@@H](CCCC)C(=O)N[C@@H](CC(N)=O)C(=O)N[C@@H](CCCNC(=N)N)C(=O)N(C)[C@@H](CCCC)C(=O)N[C@@H](CCCCC)C(=O)N2CCC[C@H]2C(=O)N[C@@H](C(C)C)C(=O)N[C@@H](CC(=O)O)C(=O)N[C@H](C(=O)N[C@@H](CCCN)C(=O)N[C@@H](CCC(N)=O)C(=O)O)CSCC(=O)N[C@@H](Cc2ccccc2)C(=O)N[C@@H](Cc2c[nH]c3ccccc23)C(=O)N[C@@H](CC(=O)O)C1=O [compound 1130] ({CH2CO}-FWD[NHexGly]Y[Nle]NR[NMeNle][Ahp(2)]PVDC[Orn]Q-OH; thioether N-14) | 17.5 nM |
| CCCCCCN1CC(=O)N[C@@H](Cc2ccc(O)cc2)C(=O)N[C@@H](CCCC)C(=O)N[C@@H](CC(N)=O)C(=O)N[C@@H](CCCNC(=N)N)C(=O)N(C)[C@@H](CCCC)C(=O)N[C@@H](CCCCC)C(=O)N2CCC[C@H]2C(=O)N[C@@H](C(C)C)C(=O)N[C@@H](CC(=O)O)C(=O)N[C@H](C(=O)N[C@@H](CCN)C(=O)N[C@@H](CC(N)=O)C(=O)O)CSCC(=O)N[C@@H](Cc2ccccc2)C(=O)N[C@@H](Cc2c[nH]c3ccccc23)C(=O)N[C@@H](CC(=O)O)C1=O [compound 1131] ({CH2CO}-FWD[NHexGly]Y[Nle]NR[NMeNle][Ahp(2)]PVDC[Dab]N-OH; thioether N-14) | 23.1 nM |
| CCCCCCN1CC(=O)N[C@@H](Cc2ccc(O)cc2)C(=O)N[C@@H](CCCC)C(=O)N[C@@H](CC(N)=O)C(=O)N[C@@H](CCCNC(=N)N)C(=O)N(C)[C@@H](CCCC)C(=O)N[C@@H](CCCCC)C(=O)N2CCC[C@H]2C(=O)N[C@@H](C(C)C)C(=O)N[C@@H](CC(=O)O)C(=O)N[C@H](C(=O)N[C@@H](CCN)C(=O)N[C@@H](CCC(N)=O)C(=O)O)CSCC(=O)N[C@@H](Cc2ccccc2)C(=O)N[C@@H](Cc2c[nH]c3ccccc23)C(=O)N[C@@H](CC(=O)O)C1=O [compound 1132] ({CH2CO}-FWD[NHexGly]Y[Nle]NR[NMeNle][Ahp(2)]PVDC[Dab]Q-OH; thioether N-14) | 36 nM |
| CCCCCCN1CC(=O)N[C@@H](Cc2ccc(O)cc2)C(=O)N[C@@H](CCCC)C(=O)N[C@@H](CC(N)=O)C(=O)N[C@@H](CCCNC(=N)N)C(=O)N(C)[C@@H](CCCC)C(=O)N[C@@H](CCCCC)C(=O)N2CCC[C@H]2C(=O)N[C@@H](C(C)C)C(=O)N[C@@H](CC(=O)O)C(=O)N[C@H](C(=O)N[C@@H](CN)C(=O)N[C@@H](CC(N)=O)C(=O)O)CSCC(=O)N[C@@H](Cc2ccccc2)C(=O)N[C@@H](Cc2c[nH]c3ccccc23)C(=O)N[C@@H](CC(=O)O)C1=O [compound 1133] ({CH2CO}-FWD[NHexGly]Y[Nle]NR[NMeNle][Ahp(2)]PVDC[Dap]N-OH; thioether N-14) | 11.5 nM |
| CCCCCCN1CC(=O)N[C@@H](Cc2ccc(O)cc2)C(=O)N[C@@H](CCCC)C(=O)N[C@@H](CC(N)=O)C(=O)N[C@@H](CCCNC(=N)N)C(=O)N(C)[C@@H](CCCC)C(=O)N[C@@H](CCCCC)C(=O)N2CCC[C@H]2C(=O)N[C@@H](C(C)C)C(=O)N[C@@H](CC(=O)O)C(=O)N[C@H](C(=O)N[C@@H](CCN)C(=O)N[C@@H](CCC(N)=O)C(=O)O)CSCC(=O)N[C@@H](Cc2ccc3ccccc3c2)C(=O)N[C@@H](Cc2c[nH]c3ccccc23)C(=O)N[C@@H](CC(=O)O)C1=O [compound 1134] ({CH2CO}-[2Nal]WD[NHexGly]Y[Nle]NR[NMeNle][Ahp(2)]PVDC[Dab]Q-OH; thioether N-14) | 13.7 nM |

Further lines, results first:

| IC50 | SMILES |
| --- | --- |
| 39.1 nM | CCCCCCN1CC(=O)N[C@@H](Cc2ccc(O)cc2)C(=O)N[C@@H](CCCC)C(=O)N[C@@H](CC(N)=O)C(=O)N[C@@H](CCCNC(=N)N)C(=O)N(C)[C@@H](CCCC)C(=O)N[C@@H](CCCCC)C(=O)N2CCC[C@H]2C(=O)N[C@@H](C(C)C)C(=O)N[C@@H](CC(=O)O)C(=O)N[C@H](C(=O)N[C@@H](CN)C(=O)N[C@@H](CCC(N)=O)C(=O)O)CSCC(=O)N[C@@H](Cc2ccc3ccccc3c2)C(=O)N[C@@H](Cc2c[nH]c3ccccc23)C(=O)N[C@@H](CC(=O)O)C1=O [compound 1135] ({CH2CO}-[2Nal]WD[NHexGly]Y[Nle]NR[NMeNle][Ahp(2)]PVDC[Dap]Q-OH; thioether N-14) |
| 9.5 nM | CCCCCCN1CC(=O)N[C@@H](Cc2ccc(O)cc2)C(=O)N[C@@H](CCCC)C(=O)N[C@@H](CC(N)=O)C(=O)N[C@@H](CCCNC(=N)N)C(=O)N(C)[C@@H](CCCC)C(=O)N[C@@H](CCCCC)C(=O)N2CCC[C@H]2C(=O)N[C@@H](C(C)C)C(=O)N[C@@H](CC(=O)O)C(=O)N[C@H](C(=O)N[C@@H](CN)C(=O)N[C@@H](CC(N)=O)C(=O)O)CSCC(=O)N[C@@H](Cc2ccc3ccccc3c2)C(=O)N[C@@H](Cc2c[nH]c3ccccc23)C(=O)N[C@@H](CC(=O)O)C1=O [compound 1136] ({CH2CO}-[2Nal]WD[NHexGly]Y[Nle]NR[NMeNle][Ahp(2)]PVDC[Dap]N-OH; thioether N-14) |
| 22.4 nM | CCCCCCN1CC(=O)N[C@@H](Cc2ccc(O)cc2)C(=O)N[C@@H](CCCC)C(=O)N[C@@H](CC(N)=O)C(=O)N[C@@H](CCCNC(=N)N)C(=O)N(C)[C@@H](CCCC)C(=O)N[C@@H](CCCCC)C(=O)N2CCC[C@H]2C(=O)N[C@@H](C(C)C)C(=O)N[C@@H](CC(=O)O)C(=O)N[C@H](C(=O)N[C@@H](CCCCN)C(=O)N[C@@H](CCC(N)=O)C(=O)O)CSCC(=O)N[C@@H](Cc2ccc3ccccc3c2)C(=O)N[C@@H](Cc2c[nH]c3ccccc23)C(=O)N[C@@H](CC(=O)O)C1=O [compound 1137] ({CH2CO}-[2Nal]WD[NHexGly]Y[Nle]NR[NMeNle][Ahp(2)]PVDCKQ-OH; thioether N-14) |
| 36.2 nM | CCCCCCN1CC(=O)N[C@@H](Cc2ccc(O)cc2)C(=O)N[C@@H](CCCC)C(=O)N[C@@H](CC(N)=O)C(=O)N[C@@H](CCCNC(=N)N)C(=O)N(C)[C@@H](CCCC)C(=O)N[C@@H](CCCCC)C(=O)N2CCC[C@H]2C(=O)N[C@@H](C(C)C)C(=O)N[C@@H](CC(=O)O)C(=O)N[C@H](C(=O)N[C@@H](CCCN)C(=O)N[C@@H](CC(N)=O)C(=O)O)CSCC(=O)N[C@@H](Cc2ccc3ccccc3c2)C(=O)N[C@@H](Cc2c[nH]c3ccccc23)C(=O)N[C@@H](CC(=O)O)C1=O [compound 1139] ({CH2CO}-[2Nal]WD[NHexGly]Y[Nle]NR[NMeNle][Ahp(2)]PVDC[Orn]N-OH; thioether N-14) |
| 19.1 nM | CCCCCCN1CC(=O)N[C@@H](Cc2ccc(O)cc2)C(=O)N[C@@H](CCCC)C(=O)N[C@@H](CC(N)=O)C(=O)N[C@@H](CCCNC(=N)N)C(=O)N(C)[C@@H](CCCC)C(=O)N[C@@H](CCCCC)C(=O)N2CCC[C@H]2C(=O)N[C@@H](C(C)C)C(=O)N[C@@H](CC(=O)O)C(=O)N[C@H](C(=O)N[C@@H](CCCN)C(=O)N[C@@H](CCC(N)=O)C(=O)O)CSCC(=O)N[C@@H](Cc2ccc3ccccc3c2)C(=O)N[C@@H](Cc2c[nH]c3ccccc23)C(=O)N[C@@H](CC(=O)O)C1=O [compound 1140] ({CH2CO}-[2Nal]WD[NHexGly]Y[Nle]NR[NMeNle][Ahp(2)]PVDC[Orn]Q-OH; thioether N-14) |
